These are literature values, as cited in patent publication US20250176603A1, “Vegetable-Based Food Product” (L-CONE SP. Z O. O., priority 2023, published 2025).

The structures appear in SMILES notation. “Also recorded” adds a separate entry of the source.

Data set [1] has as its system lipopolysaccharide (LPS)-activated BV2 microglia.
The subject of data set [2] is pancreatic cancer patients resistant to gemcitabine chemotherapy. The settings on record: 8 g/day in a divided dose for 11 months.
The test system of data set [3] is prostate cancer patients undergoing radiotherapy.
In another data set the test system is Ehrlich ascites tumor. The settings on record: mice.
For another data set, the system named is DSS-induced colitis. The note with it: DSS-induced colitis model.
The test system of data set [4] is acetic acid-induced ulcerative colitis. The note with it: oral administration.
The conditions of data set [5]: in vivo.
Data set [6] has as its system diethylnitrosamine-induced hepatocarcinogenesis. The settings on record: rats.
A further data set has as its system TPOAb antibody. The note with it: 200 ug for 3 months.

With `O=CC=Cc1ccccc1` [Cinnamaldehyde], the “production and expression of NO, IL-1b, IL-6 and TNF-a” value in [1] was “decrease”. Further, the tau protein aggregation entry in the data set on tau protein is “potential in inhibiting”.

As to `COc1cc(/C=C/C(=O)CC(=O)/C=C/c2ccc(O)c(OC)c2)ccc1O` [curcumin], the “chances of longer survival” value in [2] is recorded as “significantly increased; also recorded: increased significantly”. Besides, the “radiation side effects and therapeutic efficacy” value in [3] was “alleviate the side effects of radiation and enhance its therapeutic efficacy; also recorded: mitigate radiation side effects and enhance therapeutic efficacy”.

Consider `O=C(/C=C/C=C/c1ccc2c(c1)OCO2)N1CCCCC1` [piperine], for which, in the data set with K-562 cells, the cytotoxic effects entry was “strong cytotoxic effects”.

For the compound `C=CCN=C=S` [allyl isothiocyanate], the cytotoxic effect result in the data set with lung cancer cells and in the data set on bladder was “cytotoxic effect” throughout. Also, the “Ehrlich ascites tumor growth” value in the data set on Ehrlich ascites tumor is “inhibited”.

For `O=C1c2c(O)cc(O)cc2O[C@H](c2ccc(O)c(O)c2)[C@H]1O` [taxifolin], in the data set on DSS-induced colitis, the NF-κB activation entry is on record as “reduce”.

As to `COc1cc(C2Oc3cc([C@H]4Oc5cc(O)cc(O)c5C(=O)[C@@H]4O)ccc3OC2CO)ccc1O` (some centres unmarked) [silybin], the “IL-6 and TNF-α activity” value in data set [4] is “significant reduction”.

As for `C[S+]([O-])CCCCN=C=S` (centres unmarked) [Sulforaphane], the level of bioavailability in data set [5] is listed as 74%.

Consider `C=CCC(=NOS(=O)(=O)O)S[C@@H]1O[C@H](CO)[C@@H](O)[C@H](O)[C@H]1O` (stereo in doubt) [Sinigrin], for which, in data set [6], the diethylnitrosamine-induced hepatocarcinogenesis result is given as “inhibited”.

In the case of `C[Se]CC[C@H](N)C(=O)O` [selenomethionine], the TPOAb antibody levels result in the data set with TPOAb antibody is reported as “significantly reduced”.

On to `O=[Se](=O)(O)O` [sodium selenate], for which the TPOAb antibody levels result in the data set with TPOAb antibody is “significantly reduced”.
